Consider 9 compounds from patent US4468385A, “Poly-cation salts of 4-O-poly-hexaose-thio-alkylene sulfate derivatives and method of use” (American Cyanamid Company, priority 1983, dated 1984).

“And” between values parts separate entries of the source, which are not always exact repeats. Equal values may be shown once. Where a name gives a salt, the structure may show the parent alone.

The target of one assay is activated human C1 (Homo sapiens, UniProt P09871). The assay is described as follows: Test Code 026 (C1 inhibitor): protection of fluid phase human C2 from activated human C1 in the presence of C4. Format: biochemical. The settings on record: serial twofold dilution assay; higher well number indicates higher activity.
The subject of assay [1] is hereditary angioneurotic edema. The conditions noted are these: literature report; cited from earlier work.
For assay [2], the system named is total hemolytic complement activity. The conditions noted are these: in vitro and in vivo, judged by reduction in total hemolytic complement activity; cited from earlier work.
Another assay has as its system complement system. The conditions noted are these: literature report; cited from earlier work.

Take `CC(=O)NC(CCS[C@@H]1O[C@H](COS(=O)(=O)O)[C@@H](O[C@H]2O[C@H](COS(=O)(=O)O)[C@@H](OS(=O)(=O)O)[C@H](OS(=O)(=O)O)[C@H]2OS(=O)(=O)O)[C@H](OS(=O)(=O)O)[C@H]1OS(=O)(=O)O)C(=O)O` (stereo partly drawn) [4-[2,3,6-Tri-O-sulfo-4-O-(2,3,4,6-tetra-O-sulfo-α-D-glucopyranosyl)-β-D-glucopyranosyl]-2-acetamido-4-mercaptobutyric acid heptasodium salt]: on activated human C1, the “In vitro Activity Cl 026 Wells” value came to 6 Wells.
For the compound `O=S(=O)([O-])OC[C@H]1O[C@@H](SCC(O)C(O)CS)[C@H](OS(=O)(=O)[O-])[C@@H](OS(=O)(=O)[O-])[C@@H]1O[C@H]1O[C@H](COS(=O)(=O)[O-])[C@@H](OS(=O)(=O)[O-])[C@H](OS(=O)(=O)[O-])[C@H]1OS(=O)(=O)[O-].[Na+].[Na+].[Na+].[Na+].[Na+].[Na+].[Na+]` (stereo partly drawn) [2,3-Dihydroxy-4-mercaptobutyl 2,3,6-tri-O-sulfo-4-O-(2,3,4,6-tetra-O-sulfo-α-D-glucopyranosyl)-1-thio-β-D-glucopyranoside heptasodium salt], the “In vitro Activity Cl 026 Wells” value on activated human C1 came to 12 Wells.
Take `NC[C@H]1CC[C@H](C(=O)O)CC1` [tranexamic acid]: the “treatment of hereditary angioneurotic edema” value in assay [1] is listed as “used with success”.
For `O=S(=O)(O)OC[C@H]1O[C@H](O[C@H]2[C@H](O)[C@@H](OS(=O)(=O)O)[C@H](SCC(S)CO)O[C@@H]2COS(=O)(=O)O)[C@H](OS(=O)(=O)O)[C@@H](O)[C@@H]1O` (stereo partly drawn) [3-Hydroxy-2-mercaptopropyl 4-O-α-D-glucopyranosyl-1-thio-β-D-glucopyranoside-tetrakis-(H-sulfate) tetrasodium salt], the “In vitro Activity Cl 026 Wells” value on activated human C1 is 6 Wells and 9 Wells.
As for `N[C@@H](CS[C@@H]1O[C@H](COS(=O)(=O)O)[C@@H](O[C@H]2O[C@H](COS(=O)(=O)O)[C@@H](OS(=O)(=O)O)[C@H](OS(=O)(=O)O)[C@H]2OS(=O)(=O)O)[C@H](OS(=O)(=O)O)[C@H]1OS(=O)(=O)O)C(=O)O` [4-[2,3,6-Tri-O-sulfo-4-O-(2,3,4,6-tetra-O-sulfo-α-D-glucopyranosyl)-β-D-glucopyranosyl]-L-cysteine heptasodium salt], the “In vitro Activity Cl 026 Wells” value on activated human C1 is listed as 1 Wells.
For `NCCCCCC(=O)O` [epsilon-aminocaproic acid], the “treatment of hereditary angioneurotic edema” value in assay [1] is on record as “used with success”.
As for pentosan- polysulfoester, the “anticomplementary activity on human serum” value in assay [2] is given as “anticomplementary activity”.
In the case of heparin, the anticomplementary effect entry in the assay with complement system is given as “anticomplementary effect”.
For the compound `Nc1ccc2cc(S(=O)(=O)[O-])cc(O)c2c1N=Nc1ccc(NC(=O)Nc2ccc(N=Nc3c(N)ccc4cc(S(=O)(=O)[O-])cc(O)c34)c(S(=O)(=O)[O-])c2)cc1S(=O)(=O)[O-].[Na+].[Na+].[Na+].[Na+]` [chlorazol fast pink, 3,3'-ureylenebis[6-(2-amino-8-hydroxy-6-sulfo-1-naphthylazo)benzenesulfonic acid], tetrasodium salt], in the assay on complement system, the anticomplementary effect result is on record as “anticomplementary effect”.
